Values of other authors, collected in paper PMC8146789, “20-Hydroxyecdysone, from Plant Extracts to Clinical Use: Therapeutic Potential for the Treatment of Neuromuscular, Cardio-Metabolic and Respiratory Diseases” (Biomedicines, 2021).
Read-outs that look alike come from different tables or passages of the source.

Assays:
[1] = system: myostatin gene expression in C2C12 cells; conditions: C2C12 myotubes, ref [103], cited from earlier work
Erβ = system: Erβ; parameters: method as in PMID 24974955; conditions: ref [54]; cited from earlier work
[2] = parameters: method as in Wu et al. [124]; conditions: mice, ref Wu et al. [124], cited from earlier work
Giardiasis = system: Giardiasis; parameters: method as in PMID 12224262; conditions: 5 mg 3× or 4×/day, 10 days; ref [167]; cited from earlier work
[3] = parameters: method as in doi:10.1055/s-0032-1320426; conditions: ref [171],[172], cited from earlier work
[4] = cited from earlier work
[5] = slightly overweight persons, 200 mg daily
[6] = humans, ingestion of 434 mg, ref [134]
[7] = humans, single oral intake of 20 mg, RIA and LC-MS

## CC(C)(O)CC[C@@H](O)[C@](C)(O)[C@H]1CC[C@@]2(O)C3=CC(=O)[C@@H]4C[C@@H](O)[C@@H](O)C[C@]4(C)[C@H]3CC[C@]12C [20E, 2β,3β,14α,20R,22R,25-hexahydroxy-5β-cholest-7-en-6-one]
[1]; 0.001 to 10 μM tested
  concentration with significant difference from control in myostatin gene expression: 1 to 10 µM
[1]; 6 h treatment
  myostatin gene expression: mimics the effect of IGF-1 in a dose-dependent manner
Erβ
  activation of ERE reporter gene: could be activated dose dependently
[2]; 5 min
  quantitative distribution, Adrenals: 0.184 µg/g
  quantitative distribution, Bile: 0.421 µg/g
  quantitative distribution, Bladder: 0.013 µg/g
  quantitative distribution, Blood plasma: 0.061 µg/g
  quantitative distribution, Brain: 0.013 µg/g
  quantitative distribution, Feces: 0.015 µg/g
  quantitative distribution, Heart: 0.062 µg/g
  quantitative distribution, Kidney: 0.137 µg/g
  quantitative distribution, Large intestine: 0.011 µg/g
  quantitative distribution, Liver: 0.312 µg/g
  quantitative distribution, Lungs: 0.116 µg/g
  quantitative distribution, Skeletal muscle: 0.021 µg/g
  quantitative distribution, Small intestine: 0.254 µg/g
  quantitative distribution, Spinal cord: 0.019 µg/g
  quantitative distribution, Spleen: 0.041 µg/g
  quantitative distribution, Stomach: 0.034 µg/g
  quantitative distribution, Testis: 0.048 µg/g
  quantitative distribution, Urine: 0.482 µg/g
[2]; 10 min
  quantitative distribution, Adrenals: 0.139 µg/g
  quantitative distribution, Bile: 0.456 µg/g
  quantitative distribution, Bladder: 0.024 µg/g
  quantitative distribution, Blood plasma: 0.057 µg/g
  quantitative distribution, Brain: 0.014 µg/g
  quantitative distribution, Feces: 0.019 µg/g
  quantitative distribution, Heart: 0.052 µg/g
  quantitative distribution, Kidney: 0.123 µg/g
  quantitative distribution, Large intestine: 0.023 µg/g
  quantitative distribution, Liver: 0.251 µg/g
  quantitative distribution, Lungs: 0.069 µg/g
  quantitative distribution, Skeletal muscle: 0.023 µg/g
  quantitative distribution, Small intestine: 0.139 µg/g
  quantitative distribution, Spinal cord: 0.028 µg/g
  quantitative distribution, Spleen: 0.026 µg/g
  quantitative distribution, Stomach: 0.047 µg/g
  quantitative distribution, Testis: 0.036 µg/g
  quantitative distribution, Urine: 0.921 µg/g
[2]; 30 min
  quantitative distribution, Adrenals: 0.098 µg/g
  quantitative distribution, Bile: 1.042 µg/g
  quantitative distribution, Bladder: 0.038 µg/g
  quantitative distribution, Blood plasma: 0.052 µg/g
  quantitative distribution, Brain: 0.015 µg/g
  quantitative distribution, Feces: 0.035 µg/g
  quantitative distribution, Heart: 0.035 µg/g
  quantitative distribution, Kidney: 0.098 µg/g
  quantitative distribution, Large intestine: 0.029 µg/g
  quantitative distribution, Liver: 0.213 µg/g
  quantitative distribution, Lungs: 0.057 µg/g
  quantitative distribution, Skeletal muscle: 0.028 µg/g
  quantitative distribution, Small intestine: 0.094 µg/g
  quantitative distribution, Spinal cord: 0.067 µg/g
  quantitative distribution, Spleen: 0.024 µg/g
  quantitative distribution, Stomach: 0.075 µg/g
  quantitative distribution, Testis: 0.029 µg/g
  quantitative distribution, Urine: 1.534 µg/g
[2]; 1 h
  quantitative distribution, Adrenals: 0.081 µg/g
  quantitative distribution, Bile: 0.901 µg/g
  quantitative distribution, Bladder: 0.026 µg/g
  quantitative distribution, Blood plasma: 0.047 µg/g
  quantitative distribution, Brain: 0.013 µg/g
  quantitative distribution, Feces: 0.068 µg/g
  quantitative distribution, Heart: 0.033 µg/g
  quantitative distribution, Kidney: 0.071 µg/g
  quantitative distribution, Large intestine: 0.031 µg/g
  quantitative distribution, Liver: 0.112 µg/g
  quantitative distribution, Lungs: 0.053 µg/g
  quantitative distribution, Skeletal muscle: 0.017 µg/g
  quantitative distribution, Small intestine: 0.083 µg/g
  quantitative distribution, Spinal cord: 0.041 µg/g
  quantitative distribution, Spleen: 0.018 µg/g
  quantitative distribution, Stomach: 0.061 µg/g
  quantitative distribution, Testis: 0.026 µg/g
  quantitative distribution, Urine: 0.281 µg/g
[2]; 3 h
  quantitative distribution, Adrenals: 0.073 µg/g
  quantitative distribution, Bile: 0.301 µg/g
  quantitative distribution, Bladder: 0.023 µg/g
  quantitative distribution, Blood plasma: 0.032 µg/g
  quantitative distribution, Brain: 0.012 µg/g
  quantitative distribution, Feces: 0.099 µg/g
  quantitative distribution, Heart: 0.031 µg/g
  quantitative distribution, Kidney: 0.055 µg/g
  quantitative distribution, Large intestine: 0.035 µg/g
  quantitative distribution, Liver: 0.078 µg/g
  quantitative distribution, Lungs: 0.049 µg/g
  quantitative distribution, Skeletal muscle: 0.015 µg/g
  quantitative distribution, Small intestine: 0.076 µg/g
  quantitative distribution, Spinal cord: 0.033 µg/g
  quantitative distribution, Spleen: 0.023 µg/g
  quantitative distribution, Stomach: 0.053 µg/g
  quantitative distribution, Testis: 0.023 µg/g
  quantitative distribution, Urine: 0.102 µg/g
[2]; 6 h
  quantitative distribution, Adrenals: 0.065 µg/g
  quantitative distribution, Bile: 0.209 µg/g
  quantitative distribution, Bladder: 0.018 µg/g
  quantitative distribution, Blood plasma: 0.023 µg/g
  quantitative distribution, Brain: 0.01 µg/g
  quantitative distribution, Feces: 0.931 µg/g
  quantitative distribution, Heart: 0.029 µg/g
  quantitative distribution, Kidney: 0.043 µg/g
  quantitative distribution, Large intestine: 0.048 µg/g
  quantitative distribution, Liver: 0.061 µg/g
  quantitative distribution, Lungs: 0.045 µg/g
  quantitative distribution, Skeletal muscle: 0.013 µg/g
  quantitative distribution, Small intestine: 0.061 µg/g
  quantitative distribution, Spinal cord: 0.024 µg/g
  quantitative distribution, Spleen: 0.027 µg/g
  quantitative distribution, Stomach: 0.041 µg/g
  quantitative distribution, Testis: 0.021 µg/g
  quantitative distribution, Urine: 0.096 µg/g
[2]; 12 h
  quantitative distribution, Adrenals: 0.052 µg/g
  quantitative distribution, Bile: 0.198 µg/g
  quantitative distribution, Bladder: 0.015 µg/g
  quantitative distribution, Blood plasma: 0.015 µg/g
  quantitative distribution, Brain: 0.008 µg/g
  quantitative distribution, Feces: 0.312 µg/g
  quantitative distribution, Heart: 0.023 µg/g
  quantitative distribution, Kidney: 0.037 µg/g
  quantitative distribution, Large intestine: 0.038 µg/g
  quantitative distribution, Liver: 0.056 µg/g
  quantitative distribution, Lungs: 0.036 µg/g
  quantitative distribution, Skeletal muscle: 0.011 µg/g
  quantitative distribution, Small intestine: 0.05 µg/g
  quantitative distribution, Spinal cord: 0.020 µg/g
  quantitative distribution, Spleen: 0.032 µg/g
  quantitative distribution, Stomach: 0.032 µg/g
  quantitative distribution, Testis: 0.019 µg/g
  quantitative distribution, Urine: 0.087 µg/g
[2]; 24 h
  quantitative distribution, Adrenals: 0.043 µg/g
  quantitative distribution, Bile: 0.094 µg/g
  quantitative distribution, Bladder: 0.013 µg/g
  quantitative distribution, Blood plasma: 0.011 µg/g
  quantitative distribution, Brain: 0.007 µg/g
  quantitative distribution, Feces: 0.041 µg/g
  quantitative distribution, Heart: 0.022 µg/g
  quantitative distribution, Kidney: 0.032 µg/g
  quantitative distribution, Large intestine: 0.023 µg/g
  quantitative distribution, Liver: 0.046 µg/g
  quantitative distribution, Lungs: 0.028 µg/g
  quantitative distribution, Skeletal muscle: 0.010 µg/g
  quantitative distribution, Small intestine: 0.033 µg/g
  quantitative distribution, Spinal cord: 0.018 µg/g
  quantitative distribution, Spleen: 0.027 µg/g
  quantitative distribution, Stomach: 0.023 µg/g
  quantitative distribution, Testis: 0.017 µg/g
  quantitative distribution, Urine: 0.046 µg/g
Giardiasis
  patients with parasite elimination: Parasite elimination in 68.7% of patients
[3]; overweight, 100 or 200 mg/day, 3 months
  output of trial in menopause disorders: Prevention of metabolic syndrome and osteoporosis, reduction in body weight, reduction in plasma cholesterol and CRP; proposed for hormone replacement therapy
[3]; [5]
  increase of HDL: 10.8%
  reduction of LDL: 13.9%
  reduction of serum cholesterol: 10.2%
  reduction of triglycerides: 31.1%
  reduction of waist circumference: 2.7 cm
[4]; [6]
  total urinary excretion of 20E: 5 mg
  urinary excretion, of the ingested amount: approximately 1%
[4]; humans, ingestion of ca. 15 mg, ref Simon and Koolman [132]
  urinary peak level: approximately 0.5 μM
[4]; [7]
  time of urinary peak of detectable ecdysteroids: 3 to 4 h
  total quantity of detectable ecdysteroids in urine: 1 to 2 mg
[4]; in vivo
  effective half-time of elimination from the blood: 9 h
  effective half-time of elimination from the urine: 3.3 h
  time of plasma titre maximum: ca. 30 min
